Laboratory results: paper PMC5843811, “^44Sc for labeling of DOTA- and NODAGA-functionalized peptides: preclinical in vitro and in vivo investigations” (EJNMMI Radiopharmacy and Chemistry, 2016)
Read-outs that look alike come from different tables or passages of the source. Blank lines part the entries; values can stand above or below the compound they belong to.

Columns and labels:
AR42J tumor-bearing mice [1] = details: female, CD-1 nude (athymic nude), mouse, in vivo, iv, 5 MBq per mouse
Method: (§1) Female athymic nude mice (CD-1 nude), age 5–6 weeks, were obtained from Charles River Laboratories, Sulzfeld, Germany. U87MG cells and AR42J-cells were suspended in PBS (5 × 10^6 cells in 100 μL) and subcutaneously inoculated on each shoulder. Two to three weeks later, when the tumor reached a size of about 300–500 mm^3, the mice were used for the in vivo studies.
(§2) Biodistribution studies were performed with U87MG tumor and AR42J tumor-bearing mice 2 weeks after tumor cell inoculation. ^44Sc- and ^68Ga-labeled peptides (~5 MBq, ~1 nmol per mouse) were intravenously injected in a volume of 100–200 μL. Mice were sacrificed at 30 min, 2 h and 5 h after injection (p.i.) of the ^44Sc-labeled peptides. Mice which were injected with ^68Ga-labeled peptides were sacrificed at 30 min and 2 h p.i. Selected tissues and organs were collected, weighed, and counted for radioactivity using a γ-counter (Wallac Wizard 1480, Perkin Elmer). The results were listed as a percentage of the injected activity per gram of tissue mass (% IA/g), using counts of a defined volume of the original injection solution counted at the same time. The data were analyzed for significance using a two-way ANOVA test (Graph Pad Prism 6 software, version 6.05). A p-value of < 0.05 was considered statistically significant.

in vivo = details: female, CD-1 nude (athymic nude), mouse, iv, 5 MBq per mouse, total radioactivity, Biodistribution
Method: as §1, §2

[2] = Metal challenge stability in saline with 10 mM Cu^2+ (TLC); type: physicochemical; details: 0.9 % NaCl with 10 mM Cu^2+, 37 °C, after two half-lives, 80–100 MBq in 800 μL
Method: Aliquots were taken from the prepared solutions at different time points over at least four half-lives, respectively, of ^44Sc and ^68Ga and analyzed by TLC (TLC was used, as the high metal concentrations used in this study may impair the long-term performance of HPLC columns). […] The TLC plates (Silica-gel 60, Merck) were developed using 0.1 M sodium citrate (pH 4.7) as mobile phase. The quantitative distribution of radioactivity was determined with an autoradiography system (Cyclone Plus, Perkin Elmer) and its associated software (Optiquant, version 5.0).
The influence of high metal cation concentration on the stability of ^44Sc and ^68Ga labeled peptides was monitored in solutions containing 0.01 M Fe^3+ or Cu^2+. An aqueous metal cation solution (16 μL of a 0.5 M Fe^3+/Cu^2+ solution) was added to 80–100 MBq of ^44Sc or ^68Ga labeling solution and diluted with 0.9 % NaCl solution to a volume of 800 μL. The incubation conditions, time points of retrieving samples and analysis by TLC were kept the same, as described above.

AR42J tumor-bearing mice [3] = experiment: PET/CT imaging of AR42J tumor-bearing mice; details: 3 h after i.v. injection of ~10 MBq (~1 nmol; ^44Sc-NODAGA-NOC ~3 nmol), one or two mice
Method: A bench-top preclinical PET scanner (G8, Sofie Biosciences, California, U.S.A. and Perkin Elmer, Massachusetts, U.S.A.) was employed for the PET scans of the tumor-bearing mice. The energy window was set to 150–650 keV. Mice were injected intravenously with ^44Sc- or ^68Ga-labeled peptides (~10 MBq, ~1 nmol per mouse) in a volume of 100–200 μL. The PET scans were performed 3 h and 5 h after injection of the ^44Sc-labeled peptides and 3 h after injection of the ^68Ga-labeled peptides, using G8 acquisition software (version 2.0.0.10). All static PET scans lasted for 20 min. During the acquisition the mice were anesthetized by inhalation of a mixture of isoflurane and oxygen. The images were reconstructed with maximum-likelihood expectation maximization (MLEM). Gauss post-reconstruction filtering was performed using VivoQuant post-processing software (version 2.10, inviCRO Imaging Services and Software, Boston, U.S.A.).

[4] = Biodistribution in AR42J tumor-bearing mice; details: female, CD-1 nude (athymic nude), mouse, AR42J tumor / liver, iv, total radioactivity, Tumor-to-liver ratio, i.v. ~5 MBq (~1 nmol), 2 h p.i., mean ± SD, n=3
Method: as §1, §2

[5] = Biodistribution in U87MG tumor-bearing mice; type: in vivo; details: female, CD-1 nude (athymic nude), mouse, U87MG tumor, iv, total radioactivity, i.v. ~5 MBq (~1 nmol), 2 h p.i., mean ± SD, n=3, read-out: Biodistribution, U87MG Tumor
Method: as §1, §2

Biodistribution, Pancreas (AR42J tumor-bearing mice [1]; 2 h): 0.71 ± 0.01 % IA/g | Biodistribution, Stomach (AR42J tumor-bearing mice [1]; 2 h): 0.71 ± 0.05 % IA/g | tissue uptake at 0.5 h (in vivo; Intestines): 1.02 ± 0.37 %ID/g | tissue uptake at 0.5 h (in vivo; Pancreas): 1.29 ± 0.28 %ID/g | tissue uptake at 5 h (in vivo; Pancreas): 0.57 ± 0.07 %ID/g | tissue uptake at 0.5 h (in vivo; Stomach): 1.38 ± 0.29 %ID/g | tissue uptake at 5 h (in vivo; Stomach): 0.52 ± 0.09 %ID/g
SMILES: C[C@@H](O)[C@@H]1NC(=O)[C@H](CCCCN)NC(=O)[C@@H](Cc2c[nH]c3ccccc23)NC(=O)[C@H](Cc2cccc3ccccc23)NC(=O)[C@@H](NC(=O)[C@@H](Cc2ccccc2)NC(=O)CN2CCN(CC(=O)O)CCN(CC(=O)O)CCN(CC(=O)O)CC2)CSSC[C@@H](C(=O)N[C@H](CO)[C@@H](C)O)NC1=O [^44Sc-DOTA-NOC, metal not drawn]

Biodistribution, Intestines (AR42J tumor-bearing mice [1]; 0.5 h): 0.99 ± 0.13 % IA/g | Biodistribution, Pancreas (AR42J tumor-bearing mice [1]; 0.5 h): 2.48 ± 0.11 % IA/g | Biodistribution, Stomach (AR42J tumor-bearing mice [1]; 0.5 h): 2.27 ± 0.21 % IA/g | Biodistribution, Pancreas (AR42J tumor-bearing mice [1]; 2 h): 1.70 ± 0.22 % IA/g | Biodistribution, Stomach (AR42J tumor-bearing mice [1]; 2 h): 1.68 ± 0.27 % IA/g
SMILES: C[C@@H](O)[C@@H]1NC(=O)[C@H](CCCCN)NC(=O)[C@@H](Cc2c[nH]c3ccccc23)NC(=O)[C@H](Cc2cccc3ccccc23)NC(=O)[C@@H](NC(=O)[C@@H](Cc2ccccc2)NC(=O)CN2CCN(CC(=O)O)CCN(CC(=O)O)CCN(CC(=O)O)CC2)CSSC[C@@H](C(=O)N[C@H](CO)[C@@H](C)O)NC1=O [^68Ga-DOTA-NOC, metal not drawn]

Amount of intact compound in presence of 10 mM Cu^2+ [2]: 10%
SMILES: N=C(N)NCCC[C@@H]1NC(=O)[C@H](CCCCNC(=O)CN2CCN(CC(=O)O)CCN(CC(=O)O)CCN(CC(=O)O)CC2)NC(=O)[C@@H](Cc2ccccc2)NC(=O)[C@H](CC(=O)O)NC(=O)CNC1=O [^68Ga-DOTA-RGD, metal not drawn]

PET/CT distribution of radioactivity (in words) (AR42J tumor-bearing mice [3]): accumulated solely in tumors and kidneys | tissue to tissue ratio at 2 h [4]: 5.88 ± 0.68
SMILES: C[C@@H](O)[C@@H]1NC(=O)[C@H](CCCCN)NC(=O)[C@@H](Cc2c[nH]c3ccccc23)NC(=O)[C@H](Cc2cccc3ccccc23)NC(=O)[C@@H](NC(=O)[C@@H](Cc2ccccc2)NC(=O)CCC(C(=O)O)N2CCN(CC(=O)O)CCN(CC(=O)O)CC2)CSSC[C@@H](C(=O)N[C@H](CO)[C@@H](C)O)NC1=O (stereo partly shown) [^68Ga-NODAGA-NOC, metal not drawn]

tissue uptake at 2 h [5]: 3.13 ± 0.27 %ID/g
SMILES: N=C(N)NCCC[C@@H]1NC(=O)[C@H](CCCCNC(=O)CCC(C(=O)O)N2CCN(CC(=O)O)CCN(CC(=O)O)CC2)NC(=O)[C@@H](Cc2ccc(O)cc2)NC(=O)[C@H](CC(=O)O)NC(=O)CNC1=O (stereo partly shown) [^68Ga-NODAGA-RGD, metal not drawn]
